Laboratory results taken from publication PMC11997127 (Scientific Reports, 2025).
pIC50: −log10 of the molar value.

Tests used:
[1] = biological target: T1, Staphylococcus aureus lipase (SAL) (Staphylococcus aureus, UniProt Q2G155); experiment: X-ray co-crystal structures; format: biochemical
[2] = biological target: T1, Staphylococcus aureus lipase (SAL); experiment: pNPB hydrolysis assay; format: biochemical

T1 sequence (Q2G155 297-690): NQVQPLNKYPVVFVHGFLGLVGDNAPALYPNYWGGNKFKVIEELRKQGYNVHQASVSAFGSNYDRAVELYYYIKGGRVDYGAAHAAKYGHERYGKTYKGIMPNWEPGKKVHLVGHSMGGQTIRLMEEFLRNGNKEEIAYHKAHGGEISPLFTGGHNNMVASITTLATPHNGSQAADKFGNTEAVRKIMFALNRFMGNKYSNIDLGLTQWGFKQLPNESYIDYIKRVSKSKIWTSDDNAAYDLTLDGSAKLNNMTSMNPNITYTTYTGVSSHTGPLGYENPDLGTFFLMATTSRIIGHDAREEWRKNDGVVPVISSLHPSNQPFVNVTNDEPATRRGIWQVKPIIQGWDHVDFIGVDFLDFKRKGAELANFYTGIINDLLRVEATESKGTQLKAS

Row | Compound | pIC50 [1] | pIC50 [2]
1 | OC1(c2ccc(Cl)c(C(F)(F)F)c2)CCN(CCCC(c2ccc(F)cc2)c2ccc(F)cc2)CC1 [penfluridol, 1-[4,4-bis(4-fluorophenyl)butyl]-4-[4-chloro-3-(trifluoromethyl)phenyl]piperidin-4-ol] | 5.14 | –
2 | O=c1[nH]c2ccccc2n1C1CCN(CCCC(c2ccc(F)cc2)c2ccc(F)cc2)CC1 [pimozide, 3-[1-[4,4-bis(4-fluorophenyl)butyl]piperidin-4-yl]-1H-benzimidazol-2-one] | – | ~4.31
